# Assay results from patent US20090131416A1, “SUBSTITUTED PYRAZINYL AMIDE COMPOUNDS AS MODULATORS OF THE HISTAMINE H3 RECEPTOR” (priority 2007, published 2009).
# Key:
# rat H3 receptor = biological target: T1, rat H3 receptor (Rattus norvegicus, UniProt Q9QYN8); assay: Cyclic AMP Accumulation (rat H3); format: cell-based; conditions: SK-N-MC cells expressing reporter construct and rat H3 receptor; read-out: Rat pA2 (converted)
# T1 construct: expressed in transfected cells; host or cells: SK-N-MC cell sublines
# Excerpt: (§1) Sublines of SK-N-MC cells were created that expressed a reporter construct and either the human or rat H3 receptor. The pA2 values were obtained as described by Barbier et al. (2004).
# [1] = biological target: T2, cloned human H3 receptors (Homo sapiens, UniProt Q9Y5N1); assay: H3 Receptor Binding (Human); conditions: cloned human H3 receptors stably expressed in SK-N-MC cells; average of results
# T2 construct: expressed in transfected cells; host or cells: SK-N-MC cells
# Description: Binding of compounds to the cloned human H3 receptors, stably expressed in SK-N-MC cells, was performed as described by Barbier, A. J. et al. (Br. J. Pharmacol. 2004, 143(5), 649-661). Data for compounds tested in this assay are presented in Table 1, as an average of results obtained.
# human H3 receptor = biological target: T3, human H3 receptor (Homo sapiens, UniProt Q9Y5N1); assay: Cyclic AMP Accumulation (human H3); format: cell-based; conditions: SK-N-MC cells expressing reporter construct and human H3 receptor; read-out: Human pA2 (converted)
# T3 construct: expressed in transfected cells; host or cells: SK-N-MC cell sublines
# Excerpt: as §1
# [2] = biological target: T4, rat H3 receptor (rat brain membranes) (Rattus norvegicus, UniProt Q9QYN8); assay: H3 Receptor Binding (Rat); conditions: rat brain membranes without cerebellum; 0.8 nM N-[3H]-α-methylhistamine; 60 min at 25° C.
# T4 construct: A rat brain without cerebellum (Zivic Laboratories Inc., Pittsburgh, Pa.) was homogenized; tissue Zivic Laboratories Inc; host or cells: rat brain without cerebellum, membranes
# Description: A rat brain without cerebellum (Zivic Laboratories Inc., Pittsburgh, Pa.) was homogenized in 50 mM Tris-HCl/5 mM EDTA and centrifuged at 1,000 rpm for 5 min. The supernatant was removed and recentrifuged at 15,000 rpm for 30 min. Pellets were rehomogenized in 50 mM Tris/5 mM EDTA (pH 7.4). Membranes were incubated with 0.8 nM N-[^3H]-α-methylhistamine plus/minus test compounds for 60 min at 25° C. and harvested by rapid filtration over GF/C glass fiber filters (pretreated with 0.3% polyethylenimine) followed by four washes with buffer. Nonspecific binding was defined in the presence of 100 μM histamine. Inhibitory concentration (responsible for 50% inhibition of maximal effect, IC50) values were determined by a single site curve-fitting program (GraphPad, San Diego, Calif.) and converted to Ki values based on a N-[^3H]-α-methylhistamine dissociation constant (Kd) of 0.8 nM. The following results were obtained: Example 2, 34 nM; Example 3, 33 nM; Example 4,18 nM; Example 5, 9.2 nM.
# T1 sequence (Q9QYN8 whole entry): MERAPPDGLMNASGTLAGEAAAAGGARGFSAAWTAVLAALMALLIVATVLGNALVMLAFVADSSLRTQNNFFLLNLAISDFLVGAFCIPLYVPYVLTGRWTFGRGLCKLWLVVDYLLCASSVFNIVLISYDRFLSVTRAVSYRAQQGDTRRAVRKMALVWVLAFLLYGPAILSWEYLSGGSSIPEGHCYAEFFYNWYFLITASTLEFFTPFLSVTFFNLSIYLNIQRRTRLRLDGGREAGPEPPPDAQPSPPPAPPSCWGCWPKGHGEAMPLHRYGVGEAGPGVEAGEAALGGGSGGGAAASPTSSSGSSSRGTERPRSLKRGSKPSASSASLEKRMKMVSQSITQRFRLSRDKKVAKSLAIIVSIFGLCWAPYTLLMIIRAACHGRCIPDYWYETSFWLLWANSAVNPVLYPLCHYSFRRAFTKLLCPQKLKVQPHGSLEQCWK
# T4 sequence (Q9QYN8 whole entry): as above
# T3 sequence (Q9Y5N1 whole entry): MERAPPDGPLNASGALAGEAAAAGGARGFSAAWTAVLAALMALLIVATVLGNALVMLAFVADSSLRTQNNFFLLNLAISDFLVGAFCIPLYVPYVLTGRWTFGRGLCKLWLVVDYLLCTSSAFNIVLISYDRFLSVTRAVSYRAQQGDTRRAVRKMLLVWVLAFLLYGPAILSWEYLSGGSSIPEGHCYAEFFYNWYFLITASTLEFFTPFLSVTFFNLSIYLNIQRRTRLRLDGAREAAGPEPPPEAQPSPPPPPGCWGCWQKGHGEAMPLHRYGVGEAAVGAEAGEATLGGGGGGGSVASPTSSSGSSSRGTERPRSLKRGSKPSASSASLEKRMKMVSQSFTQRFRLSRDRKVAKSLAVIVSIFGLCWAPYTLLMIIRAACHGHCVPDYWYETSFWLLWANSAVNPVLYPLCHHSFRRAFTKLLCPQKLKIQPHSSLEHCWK
# T2 sequence (Q9Y5N1 whole entry): as above
Kb (rat H3 receptor) [nM],Ki [1] [nM],Kb (human H3 receptor) [nM],Ki [2] [nM],Structure (SMILES)
6.92,2.6,0.537,18,"O=C(c1cnc(Oc2cccc(F)c2)cn1)N1CCCN(C2CCC2)CC1 [Example 4, (4-Cyclobutyl-[1,4]diazepan-1-yl)-[5-(3-fluoro-phenoxy)-pyrazin-2-yl]-methanone]"
,1.5,,9.2,"N#Cc1cccc(Oc2cnc(C(=O)N3CCCN(C4CCC4)CC3)cn2)c1 [Example 5, 3-[5-(4-Cyclobutyl-[1,4]diazepane-1-carbonyl)-pyrazin-2-yloxy]-benzonitrile]"
,19,,,"O=C(c1cnc(Oc2ccc(F)cc2)cn1)N1CCN(C2CCC2)CC1 [Example 6, (4-Cyclobutyl-piperazin-1-yl)-[5-(4-fluoro-phenoxy)-pyrazin-2-yl]-methanone]"
,36,,,"O=C(c1cnc(Oc2ccccc2)cn1)N1CCN(C2CCC2)CC1 [Example 7, (4-Cyclobutyl-piperazin-1-yl)-(5-phenoxy-pyrazin-2-yl)-methanone]"
,37,,,"O=C(c1cnc(Oc2cccc(F)c2)cn1)N1CCN(C2CCC2)CC1 [Example 9, (4-Cyclobutyl-piperazin-1-yl)-[5-(3-fluoro-phenoxy)-pyrazin-2-yl]-methanone]"
,28,,,"N#Cc1cccc(Oc2cnc(C(=O)N3CCN(C4CCC4)CC3)cn2)c1 [Example 10, 3-[5-(4-Cyclobutyl-piperazine-1-carbonyl)-pyrazin-2-yloxy]-benzonitrile]"

# The remaining lines, values behind:
Structure (SMILES),Kb (rat H3 receptor) [nM],Ki [1] [nM],Kb (human H3 receptor) [nM],Ki [2] [nM]
"O=C(c1cnc(Oc2ccc(F)cc2)cn1)N1CCCN(C2CCC2)CC1 [Example 1, (4-Cyclobutyl-[1,4]diazepan-1-yl)-[5-(4-fluoro-phenoxy)-pyrazin-2-yl]-methanone]",13.5,2.4,0.871,
"O=C(c1cnc(Oc2ccccc2)cn1)N1CCCN(C2CCC2)CC1 [Example 2, (4-Cyclobutyl-[1,4]diazepan-1-yl)-(5-phenoxy-pyrazin-2-yl)-methanone]",,2.9,,34
"O=C(c1cnc(Oc2ccc(Cl)cc2)cn1)N1CCCN(C2CCC2)CC1 [Example 3, [5-(4-Chloro-phenoxy)-pyrazin-2-yl]-(4-cyclobutyl-[1,4]diazepan-1-yl)-methanone]",12.6,3.7,1.2,33
"O=C(c1cnc(Oc2ccc(Cl)cc2)cn1)N1CCN(C2CCC2)CC1 [Example 8, [5-(4-Chloro-phenoxy)-pyrazin-2-yl]-(4-cyclobutyl-piperazin-1-yl)-methanone]",,38,,
"O=C(c1cnc(OC2CCCCC2)cn1)N1CCCN(C2CCC2)CC1 [Example 11, (4-Cyclobutyl-[1,4]diazepan-1-yl)-(5-cyclohexyloxy-pyrazin-2-yl)-methanone]",9.55,3.2,0.525,
"O=C(c1cnc(OC2CCCCC2)cn1)N1CCN(C2CCC2)CC1 [Example 12, (4-Cyclobutyl-piperazin-1-yl)-(5-cyclohexyloxy-pyrazin-2-yl)-methanone]",,51,,
